# Measurements as given in the supplement of paper PMC10307832.
# Columns and labels:
# Test in all cases: relative viability (nuclei count vs DMSO), 5 days (fraction); higher = more cells survive
# [1] = test system: 201T
# Procedure, shortened: (§1)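 Lung cancer cell lines were seeded in 1536-well plates and dosed by pin tool the next day, with either a single drug or a fixed anchor-drug dose combined with five library-drug doses (not always all listed) spaced in √10 steps. Five days later, one step fixed the cells and stained their nuclei (final 0.05% Triton X-100, 1% formaldehyde, 1 ug/ml Hoechst), and nuclei were counted on 4× images. Relative viability is the nuclei count in treated wells divided by the count in vehicle wells, and each value is the median of duplicate plates.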
# [2] = test system: ABC-1
# Procedure, shortened: as §1
# [3] = test system: BEN
# Procedure, shortened: as §1
# [4] = test system: CAL-12T
# Procedure, shortened: as §1
# [5] = test system: COR-L 105
# Procedure, shortened: as §1
# [6] = test system: EKVX
# Procedure, shortened: as §1
# [7] = test system: HARA
# Procedure, shortened: as §1
# [8] = test system: HCC-366
# Procedure, shortened: as §1
# [9] = test system: LK-2
# Procedure, shortened: as §1
# [10] = test system: LOU-NH91
# Procedure, shortened: as §1
# [11] = test system: NCI-H1437
# Procedure, shortened: as §1
# [12] = test system: NCI-H1650
# Procedure, shortened: as §1
# [13] = test system: NCI-H1666
# Procedure, shortened: as §1
# [14] = test system: NCI-H2009
# Procedure, shortened: as §1
# [15] = test system: NCI-H2170
# Procedure, shortened: as §1
# [16] = test system: NCI-H3122
# Procedure, shortened: as §1
# [17] = test system: NCI-H441
# Procedure, shortened: as §1
# [18] = test system: NCI-H460
# Procedure, shortened: as §1
# [19] = test system: NCI-H661
# Procedure, shortened: as §1
# [20] = test system: NCI-H727
# Procedure, shortened: as §1
# [21] = test system: PC-14
# Procedure, shortened: as §1
smiles,measurement,setting,value
CC(=O)O[C@@]12CO[C@@H]1C[C@H](O)[C@@]1(C)C(=O)[C@H](O)C3=C(C)[C@@H](OC(=O)[C@H](O)[C@@H](NC(=O)OC(C)(C)C)c4ccccc4)C[C@@](O)([C@@H](OC(=O)c4ccccc4)[C@H]21)C3(C)C [Docetaxel] + C[C@@H](Oc1cc(-c2cnn(C3CCNCC3)c2)cnc1N)c1c(Cl)ccc(F)c1Cl [Crizotinib] (partner 1 µM),relative viability,[1]; first compound 0.0002 µM,0.983
same,relative viability,[1]; first compound 0.000632 µM,1.03
same,relative viability,[1]; first compound 0.002 µM,0.908
same,relative viability,[1]; first compound 0.006325 µM,0.646
same,relative viability,[1]; first compound 0.02 µM,0.5
same,relative viability,[2]; first compound 0.0002 µM,1.04
same,relative viability,[2]; first compound 0.000632 µM,0.78
same,relative viability,[2]; first compound 0.002 µM,0.274
same,relative viability,[2]; first compound 0.006325 µM,0.275
same,relative viability,[2]; first compound 0.02 µM,0.242
same,relative viability,[3]; first compound 0.0002 µM,0.859
same,relative viability,[3]; first compound 0.000632 µM,0.809
same,relative viability,[3]; first compound 0.002 µM,0.42
same,relative viability,[3]; first compound 0.006325 µM,0.222
same,relative viability,[4]; first compound 0.0002 µM,0.717
same,relative viability,[4]; first compound 0.000632 µM,0.341
same,relative viability,[4]; first compound 0.002 µM,0.146
same,relative viability,[4]; first compound 0.02 µM,0.096
same,relative viability,[5]; first compound 0.0002 µM,0.768
same,relative viability,[5]; first compound 0.000632 µM,0.588
same,relative viability,[5]; first compound 0.002 µM,0.361
same,relative viability,[5]; first compound 0.006325 µM,0.285
same,relative viability,[5]; first compound 0.02 µM,0.248
same,relative viability,[6]; first compound 0.0002 µM,0.725
same,relative viability,[6]; first compound 0.000632 µM,0.885
same,relative viability,[6]; first compound 0.002 µM,0.432
same,relative viability,[6]; first compound 0.006325 µM,0.25
same,relative viability,[6]; first compound 0.02 µM,0.145
same,relative viability,[7]; first compound 0.0002 µM,0.903
same,relative viability,[7]; first compound 0.000632 µM,0.364
same,relative viability,[7]; first compound 0.002 µM,0.312
same,relative viability,[7]; first compound 0.006325 µM,0.0907
same,relative viability,[7]; first compound 0.02 µM,0.104
same,relative viability,[8]; first compound 0.0002 µM,0.426
same,relative viability,[8]; first compound 0.000632 µM,0.0953
same,relative viability,[8]; first compound 0.002 µM,0.0204
same,relative viability,[8]; first compound 0.006325 µM,0.0165
same,relative viability,[8]; first compound 0.02 µM,0.0108
same,relative viability,[9]; first compound 0.0002 µM,0.209
same,relative viability,[9]; first compound 0.000632 µM,0.202
same,relative viability,[9]; first compound 0.002 µM,0.228
same,relative viability,[9]; first compound 0.006325 µM,0.213
same,relative viability,[9]; first compound 0.02 µM,0.228
same,relative viability,[10]; first compound 0.0002 µM,0.734
same,relative viability,[10]; first compound 0.000632 µM,0.664
same,relative viability,[10]; first compound 0.002 µM,0.508
same,relative viability,[10]; first compound 0.006325 µM,0.373
same,relative viability,[10]; first compound 0.02 µM,0.362
same,relative viability,[11]; first compound 0.0002 µM,0.901
same,relative viability,[11]; first compound 0.000632 µM,0.878
same,relative viability,[11]; first compound 0.002 µM,0.197
same,relative viability,[11]; first compound 0.006325 µM,0.113
same,relative viability,[11]; first compound 0.02 µM,0.11
same,relative viability,[12]; first compound 0.0002 µM,0.906
same,relative viability,[12]; first compound 0.000632 µM,0.398
same,relative viability,[12]; first compound 0.002 µM,0.206
same,relative viability,[12]; first compound 0.006325 µM,0.185
same,relative viability,[12]; first compound 0.02 µM,0.141
same,relative viability,[13]; first compound 0.0002 µM,0.67
same,relative viability,[13]; first compound 0.000632 µM,0.508
same,relative viability,[13]; first compound 0.002 µM,0.337
same,relative viability,[13]; first compound 0.006325 µM,0.259
same,relative viability,[13]; first compound 0.02 µM,0.24
same,relative viability,[14]; first compound 0.0002 µM,0.95
same,relative viability,[14]; first compound 0.000632 µM,1.03
same,relative viability,[14]; first compound 0.002 µM,0.426
same,relative viability,[14]; first compound 0.006325 µM,0.252
same,relative viability,[14]; first compound 0.02 µM,0.174
same,relative viability,[15]; first compound 0.0002 µM,1.04
same,relative viability,[15]; first compound 0.000632 µM,0.999
same,relative viability,[15]; first compound 0.002 µM,0.671
same,relative viability,[15]; first compound 0.006325 µM,0.304
same,relative viability,[15]; first compound 0.02 µM,0.199
same,relative viability,[16]; first compound 0.0002 µM,0.241
same,relative viability,[16]; first compound 0.000632 µM,0.257
same,relative viability,[16]; first compound 0.002 µM,0.26
same,relative viability,[16]; first compound 0.006325 µM,0.207
same,relative viability,[16]; first compound 0.02 µM,0.178
same,relative viability,[17]; first compound 0.0002 µM,0.802
same,relative viability,[17]; first compound 0.000632 µM,0.472
same,relative viability,[17]; first compound 0.002 µM,0.29
same,relative viability,[17]; first compound 0.006325 µM,0.193
same,relative viability,[17]; first compound 0.02 µM,0.181
same,relative viability,[18]; first compound 0.0002 µM,0.73
same,relative viability,[18]; first compound 0.000632 µM,0.673
same,relative viability,[18]; first compound 0.002 µM,0.0086
same,relative viability,[18]; first compound 0.006325 µM,0.0137
same,relative viability,[18]; first compound 0.02 µM,0.0093
same,relative viability,[19]; first compound 0.000632 µM,1.06
same,relative viability,[19]; first compound 0.002 µM,0.914
same,relative viability,[19]; first compound 0.006325 µM,0.68
same,relative viability,[19]; first compound 0.02 µM,0.503
same,relative viability,[20]; first compound 0.0002 µM,0.862
same,relative viability,[20]; first compound 0.000632 µM,0.815
same,relative viability,[20]; first compound 0.002 µM,0.344
same,relative viability,[20]; first compound 0.006325 µM,0.298
same,relative viability,[20]; first compound 0.02 µM,0.24
same,relative viability,[21]; first compound 0.0002 µM,0.932
same,relative viability,[21]; first compound 0.000632 µM,0.861
same,relative viability,[21]; first compound 0.002 µM,0.317
same,relative viability,[21]; first compound 0.006325 µM,0.0812
same,relative viability,[21]; first compound 0.02 µM,0.0748
